Counter-ions that a name gives are not always drawn.
Molecular target: USP7 (Homo sapiens (Human), UniProt Q93009)
Test: USP7 fluorescence polarisation (FP) biochemical assay, ubiquitin-Lys-TAMRA substrate
Details: Table 4, biochemical assay; average of at least duplicate experiments; read-out: USP7 IC50
Description: Measurement of USP7 Inhibitory Activity
USP7 activity was monitored in a fluorescence polarisation (FP) homogeneous assay using the isopeptide ubiquitin-Lys-TAMRA substrate (U-558, Boston Biochem). Full-length USP7 was purchased from Boston Biochem (His6-USP7FL, E-519). Unless otherwise stated, all other reagents were purchased from Sigma-Aldrich. Enzymatic reactions were conducted in black flat-bottom polystyrene 384-well plates (Nunc) and 15 μL total volume. USP7 (2.5 nM, 5 μL) was incubated in assay buffer (50 mM HEPES (pH 7.2), 150 mM NaCl, 0.5 mM EDTA, 5 mM DTT, 0.05% BSA (w/v), 0.05% CHAPS) in the presence or absence of inhibitor (5 μl). Inhibitors were stored as 10 mM DMSO stocks in an inert environment (low humidity, dark, low oxygen, room temperature) using a Storage Pod System and serial dilutions were prepared in buffer just prior to the assay (from 200 to 0.1 μM, 8 dp curve). […] FP was measured every 15 min over a period of 1.5 h (within the linear range of the assay) using a Synergy 4 plate reader (BioTek) exciting at 530 nm and measuring the amount of parallel and perpendicular light at 575 nm. The FP signal was subsequently normalised to the control without compound present.

USP7, sequence (Q93009 whole entry): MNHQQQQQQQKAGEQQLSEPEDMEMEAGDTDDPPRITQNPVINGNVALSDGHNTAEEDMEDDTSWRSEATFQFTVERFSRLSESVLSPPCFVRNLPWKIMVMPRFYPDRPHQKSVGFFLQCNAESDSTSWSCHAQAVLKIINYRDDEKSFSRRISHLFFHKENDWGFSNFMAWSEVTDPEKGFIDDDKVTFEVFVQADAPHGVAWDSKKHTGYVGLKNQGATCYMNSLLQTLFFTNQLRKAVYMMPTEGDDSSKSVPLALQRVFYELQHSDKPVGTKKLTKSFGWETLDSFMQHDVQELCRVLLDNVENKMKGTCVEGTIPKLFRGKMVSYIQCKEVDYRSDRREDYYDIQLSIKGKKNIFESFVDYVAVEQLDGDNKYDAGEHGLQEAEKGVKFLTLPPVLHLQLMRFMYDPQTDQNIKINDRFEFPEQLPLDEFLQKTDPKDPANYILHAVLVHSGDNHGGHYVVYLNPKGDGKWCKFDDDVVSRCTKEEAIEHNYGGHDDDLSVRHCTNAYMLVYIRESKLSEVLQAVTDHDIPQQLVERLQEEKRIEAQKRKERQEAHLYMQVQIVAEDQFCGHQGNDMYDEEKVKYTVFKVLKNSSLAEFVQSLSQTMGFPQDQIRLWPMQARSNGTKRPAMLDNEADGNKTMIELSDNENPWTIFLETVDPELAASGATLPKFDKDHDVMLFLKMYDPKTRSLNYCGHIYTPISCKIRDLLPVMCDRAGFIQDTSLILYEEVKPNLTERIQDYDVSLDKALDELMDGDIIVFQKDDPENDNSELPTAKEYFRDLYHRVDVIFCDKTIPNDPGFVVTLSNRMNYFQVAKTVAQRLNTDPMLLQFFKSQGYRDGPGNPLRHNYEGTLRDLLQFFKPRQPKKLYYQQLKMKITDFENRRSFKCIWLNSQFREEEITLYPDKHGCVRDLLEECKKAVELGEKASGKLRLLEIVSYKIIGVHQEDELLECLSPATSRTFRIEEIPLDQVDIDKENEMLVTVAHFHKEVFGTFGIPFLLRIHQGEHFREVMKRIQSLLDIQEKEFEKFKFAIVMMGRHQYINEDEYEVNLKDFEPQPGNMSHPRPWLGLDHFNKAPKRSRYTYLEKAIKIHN

Structure (SMILES) | IC50
C[C@H](CC(=O)N1CCC(O)(Cn2cnc(NCc3ccc(Cl)cc3)cc2=O)CC1)c1ccccc1 [Example 157, (R)-6-((4-chlorobenzyl)amino)-3-((4-hydroxy-1-(3-phenylbutanoyl)piperidin-4-yl)methyl)pyrimidin-4(3H)-one] | 1000 to 200000 nM
C[C@H](CC(=O)N1CCC(O)(C(O)c2cnc3c(-c4ccccc4)cccn3c2=O)CC1)c1ccccc1 (stereo partly drawn) [Example 105, 3-(Hydroxy(4-hydroxy-1-((R)-3-phenylbutanoyl)piperidin-4-yl)methyl)-9-phenyl-4H-pyrido[1,2-a]pyrimidin-4-one] | 1000 to 200000 nM
C[C@H](CC(=O)N1CCC(O)(Cn2cnc(N3CCC(N4CCOCC4)C3)cc2=O)CC1)c1ccccc1 (stereo partly drawn) [Example 149, 3-((4-hydroxy-1-((R)-3-phenylbutanoyl)piperidin-4-yl)methyl)-6-(3-morpholinopyrrolidin-1-yl)pyrimidin-4(3H)-one] | 1000 to 200000 nM
C[C@H](CC(=O)N1CCC(O)(Cn2cnc(N(CCN3CCCC3)c3ccccc3)cc2=O)CC1)c1ccccc1 [Example 121, (R)-3-((4-Hydroxy-1-(3-phenylbutanoyl)piperidin-4-yl)methyl)-6-(phenyl(2-(pyrrolidin-1-yl)ethyl)amino)pyrimidin-4(3H)-one, Formic Acid] | 1000 to 200000 nM
C[C@H](CC(=O)N1CCC(O)(Cn2cnc(N3CC4CCOC4C3)cc2=O)CC1)c1ccccc1 (stereo partly drawn) [Example 153, 3-((4-hydroxy-1-((R)-3-phenylbutanoyl)piperidin-4-yl)methyl)-6-(tetrahydro-2H-furo[2,3-c]pyrrol-5(3H)-yl)pyrimidin-4(3H)-one] | 1000 to 200000 nM
C[C@H](CC(=O)N1CCC(O)(Cn2cnc(N3CCCC3CNC(=O)OC(C)(C)C)cc2=O)CC1)c1ccccc1 (stereo partly drawn) [Example 147, tert-butyl ((1-(1-((4-hydroxy-1-((R)-3-phenylbutanoyl)piperidin-4-yl)methyl)-6-oxo-1,6-dihydropyrimidin-4-yl)pyrrolidin-2-yl)methyl)carbamate] | 1000 to 200000 nM
C[C@H](CC(=O)N1CCC(O)(Cn2cnc3c(nc(C(F)(F)F)n3C)c2=O)CC1)c1ccccc1 [Example 96, (R)-1-((4-Hydroxy-1-(3-phenylbutanoyl)piperidin-4-yl)methyl)-9-methyl-8-(trifluoromethyl)-1H-purin-6(9H)-one] | 1000 to 200000 nM
C[C@H](CC(=O)N1CCC(O)(Cn2cnc(N)cc2=O)CC1)c1ccccc1 [Example 5, (R)-6-Amino-3-((4-hydroxy-1-(3-phenylbutanoyl)piperidin-4-yl)methyl)pyrimidin-4(3H)-one] | 1000 to 200000 nM
C[C@H](CC(=O)N1CCC(O)(C(O)c2cnc3ccccn3c2=O)CC1)c1ccccc1 (stereo partly drawn) [Example 101, 3-(Hydroxy(4-hydroxy-1-((R)-3-phenylbutanoyl)piperidin-4-yl)methyl)-4H-pyrido[1,2-a]pyrimidin-4-one] | 1000 to 200000 nM
Cn1nc2c(=O)n(CC3(O)CCN(C(=O)C4(C)CC4)CC3)cnc2c1-c1ccc(CN)cc1 [Example 237, 3-(4-(Aminomethyl)phenyl)-6-((4-hydroxy-1-(1-methylcyclopropane-1-carbonyl)piperidin-4-yl)methyl)-2-methyl-2,6-dihydro-7H-pyrazolo[4,3-d]pyrimidin-7-one] | 1000 to 200000 nM
CN1CC=C(c2c3ncn(CC4(O)CCN(C(=O)C[C@H](c5ccccc5)C(F)(F)F)CC4)c(=O)c3nn2C)CC1 [Example 130, (R)-6-((4-Hydroxy-1-(4,4,4-trifluoro-3-phenylbutanoyl)piperidin-4-yl)methyl)-2-methyl-3-(1-methyl-1,2,3,6-tetrahydropyridin-4-yl)-2H-pyrazolo[4,3-d]pyrimidin-7(6H)-one] | 1000 to 200000 nM
O=C(C(C1CCC1)C1CCC1)N1CCC(O)(Cn2cnc(NCCN3CCCC3)cc2=O)CC1 [Example 184, 3-((1-(2,2-Dicyclobutylacetyl)-4-hydroxypiperidin-4-yl)methyl)-6-((2-(pyrrolidin-1-yl)ethyl)amino)pyrimidin-4(3H)-one] | 1000 to 200000 nM
C[C@H](CC(=O)N1CCC(O)(Cn2cnc(N3CCC(c4ccn[nH]4)CC3)cc2=O)CC1)c1ccccc1 [Example 156, (R)-6-(4-(1H-pyrazol-5-yl)piperidin-1-yl)-3-((4-hydroxy-1-(3-phenylbutanoyl)piperidin-4-yl)methyl)pyrimidin-4(3H)-one] | 1000 to 200000 nM

Now from value to compound:

IC50 | Structure (SMILES)
< 250 nM | CNCc1ccc(-c2c3ncn(CC4(O)CCN(C(=O)C[C@H](c5ccccc5)C(F)(F)F)CC4)c(=O)c3nn2C)cc1 [Example 83, (R)-6-((4-Hydroxy-1-(4,4,4-trifluoro-3-phenylbutanoyl)piperidin-4-yl)methyl)-2-methyl-3-(4-((methylamino)methyl)phenyl)-2H-pyrazolo[4,3-d]pyrimidin-7(6H)-one]
< 250 nM | NCc1ccc(-n2c(Cl)cc3c(=O)n(CC4(O)CCN(C(=O)c5cnc(C6CC6)o5)CC4)cnc32)cc1 [Example 242, 7-(4-(Aminomethyl)phenyl)-6-chloro-3-((1-(2-cyclopropyloxazole-5-carbonyl)-4-hydroxypiperidin-4-yl)methyl)-3,7-dihydro-4H-pyrrolo[2,3-d]pyrimidin-4-one]
1000 to 200000 nM | CC(C)c1c2c(nn1C)C(=O)N(CC1(O)CCN(C(=O)C[C@@H](C)c3ccccc3)CC1)CN2 [Example 34, (R)-6-((4-Hydroxy-1-(3-phenylbutanoyl)piperidin-4-yl)methyl)-3-isopropyl-2-methyl-5,6-dihydro-2H-pyrazolo[4,3-d]pyrimidin-7(4H)-one]
< 250 nM | CC1(C(=O)N2CCC(O)(Cn3cnc4c(cc(Cl)n4-c4csc(CO)c4)c3=O)CC2)CC1 [Example 201, 6-Chloro-3-((4-hydroxy-1-(1-methylcyclopropanecarbonyl)piperidin-4-yl)methyl)-7-(5-(hydroxymethyl)thiophen-3-yl)-3H-pyrrolo[2,3-d]pyrimidin-4(7H)-one]
< 250 nM | C[C@@H](N)c1ccc(-c2c3ncn(CC4(O)CCN(C(=O)C[C@H](c5ccccc5)C(F)(F)F)CC4)c(=O)c3nn2C)cc1 [Example 75, 3-(4-((R)-1-Aminoethyl)phenyl)-6-((4-hydroxy-1-((R)-4,4,4-trifluoro-3-phenylbutanoyl)piperidin-4-yl)methyl)-2-methyl-2H-pyrazolo[4,3-d]pyrimidin-7(6H)-one]
< 250 nM | Cc1nc2c(=O)n(CC3(O)CCN(C(=O)C[C@H](c4ccccc4)C(F)(F)F)CC3)cnc2n1-c1ccc(CN)cc1 [Example 78, (R)-9-(4-(Aminomethyl)phenyl)-1-((4-hydroxy-1-(4,4,4-trifluoro-3-phenylbutanoyl)piperidin-4-yl)methyl)-8-methyl-1H-purin-6(9H)-one]
< 250 nM | Cn1nc2c(=O)n(CC3(O)CCN(C(=O)C[C@H](c4ccccc4)C(F)(F)F)CC3)cnc2c1-c1ccc(CN)c(F)c1 [Example 82, (R)-3-(4-(Aminomethyl)-3-fluorophenyl)-6-((4-hydroxy-1-(4,4,4-trifluoro-3-phenylbutanoyl)piperidin-4-yl)methyl)-2-methyl-2H-pyrazolo[4,3-d]pyrimidin-7(6H)-one]
250 to 999 nM | O=C(CC(C1CC1)C1CC1)N1CCC(O)(Cn2cnc3c(nnn3-c3ccccc3)c2=O)CC1 [Example 187, 6-((1-(3,3-Dicyclopropylpropanoyl)-4-hydroxypiperidin-4-yl)methyl)-3-phenyl-3H-[1,2,3]triazolo[4,5-d]pyrimidin-7(6H)-one]
< 250 nM | Cn1nc2c(=O)n(CC3(O)CCN(C(=O)C[C@H](c4ccccc4)C(F)(F)F)CC3)cnc2c1-c1ccc(C2(N)CC2)cc1 [Example 124, (R)-3-(4-(1-Aminocyclopropyl)phenyl)-6-((4-hydroxy-1-(4,4,4-trifluoro-3-phenylbutanoyl)piperidin-4-yl)methyl)-2-methyl-2H-pyrazolo[4,3-d]pyrimidin-7(6H)-one]
< 250 nM | C[C@H](CC(=O)N1CCC(O)(Cn2cnc3c(ncn3-c3ccccc3)c2=O)CC1)c1ccccc1 [Example 17, (R)-1-((4-Hydroxy-1-(3-phenylbutanol)piperidin-4-yl)methyl)-9-phenyl-1H-purin-6(9H)-one]

Same assay, conditions: USP7 IC50, Table 4, biochemical assay; average of at least duplicate experiments

Structure (SMILES) | IC50
C[C@H](CC(=O)N1CCC(O)(Cn2cnc(NCCN3CC[C@H](F)C3)cc2=O)CC1)c1ccccc1 [Example 74, 6-((2-((S)-3-Fluoropyrrolidin-1-yl)ethyl)amino)-3-((4-hydroxy-1-((R)-3-phenylbutanoyl)piperidin-4-yl)methyl)pyrimidin-4(3H)-one, Formic Acid] | 250 to 999 nM
C[C@H](CC(=O)N1CCC(O)(Cn2cnc(NCCN3Cc4cccc(F)c4C3)cc2=O)CC1)c1ccccc1 [Example 86, (R)-6-((2-(4-Fluoroisoindolin-2-yl)ethyl)amino)-3-((4-hydroxy-1-(3-phenylbutanoyl)piperidin-4-yl)methyl)pyrimidin-4(3H)-one, Formic Acid] | 250 to 999 nM
C[C@H](CC(=O)N1CCC(O)(Cn2cnc(N3CCC[C@H](N)C3)cc2=O)CC1)c1ccccc1 [Example 47, 6-((S)-3-Aminopiperidin-1-yl)-3-((4-hydroxy-1-((R)-3-phenylbutanoyl)piperidin-4-yl)methyl)pyrimidin-4(3H)-one hydrochloride] | 250 to 999 nM
C[C@H](CC(=O)N1CCC(O)(Cn2cnc(N3C[C@@H]4C[C@H]3CN(C)C4)cc2=O)CC1)c1ccccc1 (single isomer, unassigned) [Example 180] | < 250 nM

Source: patent US10766903B2 (ALMAC DISCOVERY LIMITED, priority 2016, dated 2020)
